ChEMBL document CHEMBL3352242, “Structure-based design of substituted piperidines as a new class of highly efficacious oral direct Renin inhibitors” (ACS Med Chem Lett, 2014)
Calls of active or inactive are those of the source. The rule behind the calls is not given here.

Tests used:
[1] = Volume of distribution at steady state in Sprague-Dawley rat at 2 mg/kg, iv; type: ADME, organism-based; parameters: dose 2 mg/kg, route intravenous; settings: in vivo, read-out: Vdss
[2] = Clearance in Sprague-Dawley rat at 2 mg/kg, iv; type: ADME, organism-based; parameters: dose 2 mg/kg, route intravenous; settings: in vivo
Rattus norvegicus [3] = experiment: Dose normalized Cmax inSprague-Dawley rat at 6 mg/kg, po; type: ADME, organism-based, Sprague-Dawley; parameters: dose 6 mg/kg, route oral; settings: in vivo
[4] = Half life in Sprague-Dawley rat at 2 mg/kg, iv; type: ADME, organism-based; parameters: dose 2 mg/kg, route intravenous; settings: in vivo
[5] = Oral bioavailability in Sprague-Dawley rat at 6 mg/kg; type: ADME, organism-based; settings: in vivo
Rattus norvegicus [6] = experiment: Dose normalized AUC (infinity) in Sprague-Dawley rat at 6 mg/kg, po; type: ADME, organism-based; parameters: dose 6 mg/kg, route oral; settings: in vivo
[7] = Clearance in rat liver microsomes; type: ADME; settings: read-out: CLH
Renin [8] = target: T1, Renin (Homo sapiens, UniProt P00797); experiment: Inhibition of human recombinant renin in presence of human plasma using Ac- IHPFHL-VIHNK-(DY-505-X5)-COOH substrate by fluorimetric assay
T1 sequence (P00797 whole entry): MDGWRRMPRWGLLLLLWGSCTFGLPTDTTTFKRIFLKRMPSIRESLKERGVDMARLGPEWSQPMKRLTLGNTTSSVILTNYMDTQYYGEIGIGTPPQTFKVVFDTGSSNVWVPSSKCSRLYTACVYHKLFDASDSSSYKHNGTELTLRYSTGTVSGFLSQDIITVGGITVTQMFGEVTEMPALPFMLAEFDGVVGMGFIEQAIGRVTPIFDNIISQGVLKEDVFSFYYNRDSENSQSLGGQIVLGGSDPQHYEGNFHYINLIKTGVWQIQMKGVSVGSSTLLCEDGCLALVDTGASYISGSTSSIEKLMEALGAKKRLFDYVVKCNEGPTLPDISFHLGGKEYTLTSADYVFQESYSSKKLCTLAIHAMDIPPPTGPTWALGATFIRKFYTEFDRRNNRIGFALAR

[9] = Clearance in human liver microsomes; type: ADME; settings: read-out: CLH
Renin [10] = target: T1, Renin; experiment: Inhibition of human recombinant renin using fluorescence-quenched RE(EDANS)IHPFHLVIHTK(Dabcyl)R substrate by fluorimetric assay
[11] = Lipophilicity, logD of the compound at pH 6.8; type: physicochemical; settings: buffer
[12] = target: Voltage-gated inwardly rectifying potassium channel KCNH2 (Homo sapiens, UniProt Q12809); experiment: Displacement of [3H]dofetilide from human ERG expressed in HEK293 cell membranes incubated for 90 mins by beta-counting method
Sequence of Voltage-gated inwardly rectifying potassium channel KCNH2 (Q12809 whole entry): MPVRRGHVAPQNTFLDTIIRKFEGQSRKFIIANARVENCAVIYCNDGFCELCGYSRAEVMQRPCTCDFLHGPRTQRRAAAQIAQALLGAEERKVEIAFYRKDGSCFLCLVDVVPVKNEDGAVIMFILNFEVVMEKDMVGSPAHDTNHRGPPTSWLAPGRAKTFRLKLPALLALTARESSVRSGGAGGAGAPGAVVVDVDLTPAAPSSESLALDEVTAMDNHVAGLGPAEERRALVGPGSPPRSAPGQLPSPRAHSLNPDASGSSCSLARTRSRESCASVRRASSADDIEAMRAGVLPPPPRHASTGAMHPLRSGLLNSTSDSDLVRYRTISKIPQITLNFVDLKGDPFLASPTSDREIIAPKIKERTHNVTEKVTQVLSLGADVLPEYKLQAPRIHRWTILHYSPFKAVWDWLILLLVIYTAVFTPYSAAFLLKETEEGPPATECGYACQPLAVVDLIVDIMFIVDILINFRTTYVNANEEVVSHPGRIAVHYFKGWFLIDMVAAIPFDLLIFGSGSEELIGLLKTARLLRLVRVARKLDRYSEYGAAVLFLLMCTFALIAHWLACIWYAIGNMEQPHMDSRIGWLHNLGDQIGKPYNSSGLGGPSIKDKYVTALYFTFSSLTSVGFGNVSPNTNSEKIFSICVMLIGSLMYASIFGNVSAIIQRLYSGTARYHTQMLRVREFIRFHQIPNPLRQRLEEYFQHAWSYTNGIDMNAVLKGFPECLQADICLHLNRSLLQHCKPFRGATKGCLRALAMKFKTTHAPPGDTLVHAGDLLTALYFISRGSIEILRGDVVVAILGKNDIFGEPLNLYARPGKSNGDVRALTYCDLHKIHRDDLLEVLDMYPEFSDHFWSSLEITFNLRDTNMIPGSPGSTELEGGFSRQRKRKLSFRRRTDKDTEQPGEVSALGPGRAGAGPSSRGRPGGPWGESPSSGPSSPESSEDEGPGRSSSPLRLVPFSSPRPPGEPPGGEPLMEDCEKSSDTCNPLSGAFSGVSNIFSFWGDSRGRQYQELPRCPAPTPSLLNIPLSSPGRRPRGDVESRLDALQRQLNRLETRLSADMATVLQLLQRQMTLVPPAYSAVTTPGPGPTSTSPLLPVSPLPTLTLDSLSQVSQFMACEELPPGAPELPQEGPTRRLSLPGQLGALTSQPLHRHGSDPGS

Rattus norvegicus [13] = experiment: Reduction in mean arterial pressure in human renin and human angiotensinogen double transgenic rat at 1 to 100 mg/kg, po; type: functional, organism-based; settings: Artery
Rattus norvegicus [14] = experiment: Reduction in mean arterial pressure in human renin and human angiotensinogen double transgenic rat at 100 mg/kg, po after 42 hrs; type: functional, organism-based; parameters: dose 100 mg/kg; settings: Artery

SMILES | bioavailability [5] [%] | microsomal CLint [7] [µL/min/mg] | IC50 (Renin [8]) [nM] | microsomal CLint [9] [µL/min/mg] | IC50 (Renin [10]) [nM] | also measured
CCOC[C@@H](CC(C)C)NC(=O)[C@@H]1CNC[C@H](C(=O)N(c2ccc(C(C)C)cn2)C2CC2)C1.O=C(O)/C=C/C(=O)O | 45 |  |  |  |  | Vd [1]: 7.2 L/kg; clearance [2]: 60 mL/min/kg; Cmax/dose (Rattus norvegicus [3]): 63 nM/mg/kg; half-life [4]: 6.5 h; AUC/dose (Rattus norvegicus [6]): 296 nM·h/mg/kg
COCCCn1cc(CN(C(=O)[C@H]2CNC[C@@H](C(=O)N[C@H](CCO)c3ccccc3)C2)C2CC2)c2ccccc21 | < 0.1 | 109 | 1 | 173 | 0.4 | 
CCOC[C@@H](CC(C)C)NC(=O)[C@@H]1CNC[C@H](C(=O)N(c2cc(OC)c(C(C)C)cn2)C2CC2)C1.O=C(O)C(O)C(O)C(=O)O | 39 |  |  |  |  | Vd [1]: 4.3 L/kg; clearance [2]: 40 mL/min/kg; Cmax/dose (Rattus norvegicus [3]): 68 nM/mg/kg; half-life [4]: 7 h; AUC/dose (Rattus norvegicus [6]): 324 nM·h/mg/kg
CCOC[C@@H](CC(C)C)NC(=O)[C@@H]1CNC[C@H](C(=O)N(c2cc(OCC)c(CC)cn2)C2CC2)C1 [listing 1 of 2 here] |  |  |  |  |  | logD [11]: 2.1
COCCCn1cc(CN(C(=O)[C@H]2CNC[C@@H](C(=O)Nc3c(C)cccc3OC)C2)C2CC2)c2ccccc21 |  | 533 | 2 | 679 | 0.4 | 
CCOC[C@@H](CC(C)C)NC(=O)[C@@H]1CNC[C@H](C(=O)N(c2cc(OC)c(C(C)C)cn2)C2CC2)C1 [listing 1 of 2 here] |  |  |  |  |  | logD [11]: 2.2
CCOC[C@@H](CC(C)C)NC(=O)[C@@H]1CNC[C@H](C(=O)N(c2ccc(C(C)C)cn2)C2CC2)[C@@H]1O [listing 1 of 2 here] |  | 52 | 0.6 | < 3.4 | 0.2 | IC50 [12]: > 30000 nM
CCOC[C@@H](CC(C)C)NC(=O)[C@@H]1CNC[C@H](C(=O)N(c2cc3c(cc2F)OC(C)(C)C(=O)N3CCCOC)C2CC2)C1.Cl | 20 | 198 |  | 61 |  | Vd [1]: 12 L/kg; clearance [2]: 122 mL/min/kg; Cmax/dose (Rattus norvegicus [3]): 12 nM/mg/kg; half-life [4]: 1.9 h; AUC/dose (Rattus norvegicus [6]): 49 nM·h/mg/kg
COCCCn1cc(CN(C(=O)[C@H]2CNC[C@@H](NC(=O)CC(C)C)C2)C2CC2)c2ccccc21 (racemic) |  |  |  |  | 300 | 
CCOC[C@@H](CC(C)C)NC(=O)[C@@H]1CNC[C@H](C(=O)N(c2cc(OC)c(C(C)C)cn2)C2CC2)C1 [listing 2 of 2 here] |  | 101 | 0.4 | 15 | 0.2 | IC50 [12]: > 30000 nM
CCOC[C@@H](CC(C)C)NC(=O)[C@@H]1CNC[C@H](C(=O)N(c2cc(OCCCOC)c(C(C)C)cn2)C2CC2)C1.Cl | 19 | 96 | 1 | 53 | 0.4 | Vd [1]: 11 L/kg; clearance [2]: 80 mL/min/kg; Cmax/dose (Rattus norvegicus [3]): 18 nM/mg/kg; half-life [4]: 4.3 h; AUC/dose (Rattus norvegicus [6]): 93 nM·h/mg/kg
Cc1ccc(S(=O)(=O)N[C@@H]2CNC[C@H](C(=O)NC(c3ccccc3)c3ccccc3)C2)cc1 (racemic) |  |  | 15200 |  | 1200 | 
CCOC[C@@H](CC(C)C)NC(=O)[C@@H]1CNC[C@H](C(=O)N(c2cc(OCC)c(CC)cn2)C2CC2)[C@@H]1O.O=C(O)/C=C/C(=O)O | 60 |  |  |  |  | Vd [1]: 2.6 L/kg; clearance [2]: 12.3 mL/min/kg; Cmax/dose (Rattus norvegicus [3]): 252 nM/mg/kg; half-life [4]: 5.9 h; AUC/dose (Rattus norvegicus [6]): 1630 nM·h/mg/kg
CCOC[C@@H](CC(C)C)NC(=O)[C@@H]1CNC[C@H](C(=O)N(c2ccc(C(C)C)cc2)C2CC2)C1 |  |  | 5340 |  | 4 | 
Cc1ccc(S(=O)(=O)N[C@@H]2CNC[C@H](C(=O)N(Cc3cccc(Cl)c3Cl)C3CC3)C2)cc1 (racemic) |  |  |  |  | 2600 | 
CCOC[C@@H](CC(C)C)NC(=O)[C@@H]1CNC[C@H](C(=O)N(c2cc(OC)c(C(C)C)cn2)C2CC2)[C@@H]1O [listing 1 of 2 here] | 61 |  |  |  |  | Vd [1]: 6.1 L/kg; clearance [2]: 40 mL/min/kg; Cmax/dose (Rattus norvegicus [3]): 74 nM/mg/kg; logD [11]: 0.93; half-life [4]: 7.7 h; AUC/dose (Rattus norvegicus [6]): 511 nM·h/mg/kg
COCCCn1cc(CN(C(=O)[C@H]2CNC[C@@H](C(=O)N[C@@H](CO)CC(C)C)C2)C2CC2)c2ccccc21 | 0.4 | 111 | 8 | 157 | 3 | 
CCOC[C@@H](CC(C)C)NC(=O)[C@@H]1CNC[C@H](C(=O)N(c2cc(OCC)c(CC)cn2)C2CC2)[C@@H]1O [listing 1 of 2 here] |  |  |  |  |  | logD [11]: 0.93
CCOC[C@@H](CC(C)C)NC(=O)[C@@H]1CNC[C@H](C(=O)N(c2cc(OCC)c(CC)cn2)C2CC2)[C@@H]1O [listing 2 of 2 here] |  | 54 | 2.5 | 22 | 0.6 | 
CCOC[C@@H](CC(C)C)NC(=O)[C@@H]1CNC[C@H](C(=O)N(c2cc(OCC)c(CC)cn2)C2CC2)C1.O=C(O)C(O)C(O)C(=O)O | 44 |  |  |  |  | Vd [1]: 4.6 L/kg; clearance [2]: 23.3 mL/min/kg; Cmax/dose (Rattus norvegicus [3]): 155 nM/mg/kg; half-life [4]: 7.4 h; AUC/dose (Rattus norvegicus [6]): 690 nM·h/mg/kg
CCOC[C@@H](CC(C)C)NC(=O)[C@@H]1CNC[C@H](C(=O)N(c2cc(OCCCOC)c(C(C)C)cc2F)C2CC2)C1 |  | 214 | 2 | 115 | 0.3 | 
COCCCn1cc(CN(C(=O)[C@H]2CNC[C@@H](C(=O)NCCC(C)C)C2)C2CC2)c2ccccc21 | 29 | 141 | 40 | 194 | 3 | 
CCOC[C@@H](CC(C)C)NC(=O)[C@@H]1CNC[C@H](C(=O)N(c2ccc(C(C)C)cn2)C2CC2)[C@@H]1O [listing 2 of 2 here] |  |  |  |  |  | Activity (Rattus norvegicus [13]): Dose-dependent effect; Activity (Rattus norvegicus [14]): Active
COCCCn1cc(CN(C(=O)[C@H]2CNC[C@@H](C(=O)NCC(C)C)C2)C2CC2)c2ccccc21 (racemic) |  |  | 115 |  | 15 | 
CCOC[C@@H](CC(C)C)NC(=O)[C@@H]1CNC[C@H](C(=O)N(c2ccc(C(C)C)c(OCCCOC)n2)C2CC2)C1 |  | 252 | 6 | 289 | 0.8 | IC50 [12]: 3300 nM
CCOC[C@@H](CC(C)C)NC(=O)[C@@H]1CNC[C@H](C(=O)N(c2cc(OCC)c(CC)cn2)C2CC2)C1 [listing 2 of 2 here] |  | 62 |  | 46 | 0.2 | IC50 [12]: > 30000 nM
CCOC[C@@H](CC(C)C)NC(=O)[C@@H]1CNC[C@H](C(=O)N(c2ccc(C(C)C)cn2)C2CC2)C1 [listing 1 of 2 here] |  |  |  |  |  | logD [11]: 4.9
CCOC[C@@H](CC(C)C)NC(=O)[C@@H]1CNC[C@H](C(=O)N(c2ccc(C(C)C)cn2)C2CC2)C1 [listing 2 of 2 here] |  | 13 | 1.1 | < 3.4 |  | IC50 [12]: 7000 nM
CCOC[C@@H](CC(C)C)NC(=O)[C@@H]1CNC[C@H](C(=O)N(c2cc(OC)c(C(C)C)cn2)C2CC2)[C@@H]1O [listing 2 of 2 here] |  | 142 | 2 | 22 |  | 
CC(C)(C)OC(=O)N[C@@H]1CNC[C@H](C(=O)N(Cc2cccc(Cl)c2Cl)C2CC2)C1 (racemic) |  |  |  |  | 200 | 
